Test results reported in patent US10106553B2, “Substituted benzothiophenyl derivatives as GPR40 agonists for the treatment of type II diabetes” (Janssen Pharmaceutica NV, priority 2016, dated 2018).

Each compound was assayed against human GPR40 (Homo sapiens (Human), UniProt O14842) (assay: GPR40 Calcium Flux Assay). Conditions: transfected HEK293 cells stably expressing human GPR40; Ca2+ mobilization; mean data; read-out: hGPR40 Ca^2+ Assay EC50.
Format: cell-based
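For hGPR40 Ca^2+ Assay EC50 in this document: calcium flux followed with the Fluo-8 fluorescent dye, intensity read each second over 8 min as compounds were added to the cells.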

Chain of human GPR40 (O14842 whole entry): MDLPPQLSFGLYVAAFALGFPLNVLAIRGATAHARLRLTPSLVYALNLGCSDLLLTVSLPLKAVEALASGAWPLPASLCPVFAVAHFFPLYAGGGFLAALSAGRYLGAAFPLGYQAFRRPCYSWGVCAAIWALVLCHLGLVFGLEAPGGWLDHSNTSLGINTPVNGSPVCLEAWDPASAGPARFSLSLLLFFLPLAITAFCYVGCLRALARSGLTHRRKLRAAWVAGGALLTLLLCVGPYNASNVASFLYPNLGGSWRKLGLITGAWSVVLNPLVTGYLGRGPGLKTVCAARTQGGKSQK

SMILES | EC50 [nM]
CC#C[C@@H](Cc1nnn[nH]1)c1ccc(OCc2ccc3scc(-c4ccc(OCCC(C)(C)O)cc4C)c3c2)nc1 [Cpd 43, (2R)-4-(4-(5-(((5-(1-(1H-Tetrazol-5-yl)pent-3-yn-2-yl)pyridin-2-yl)oxy)methyl)-benzo[b]thiophen-3-yl)-3-methylphenoxy)-2-methylbutan-2-ol] | 130
CC#C[C@@H](Cc1nnn[nH]1)c1ccc(OCc2cnc3scc(-c4ccccc4C)c3c2)cc1 [Cpd 49, (2S)-5-((4-(1-(1H-Tetrazol-5-yl)pent-3-yn-2-yl)phenoxy)methyl)-3-(2-methylphenyl)thieno[2,3-b]pyridine] | 10
CC#C[C@@H](Cc1nnn[nH]1)c1ccc(OCc2cnc3scc(-c4ccc(OC)cc4C)c3c2)cc1 [Cpd 50, (2S)-5-((4-(1-(1H-Tetrazol-5-yl)pent-3-yn-2-yl)phenoxy)methyl)-3-(4-methoxy-2-methylphenyl)thieno[2,3-b]pyridine] | 52
CC#C[C@@H](Cc1nnn[nH]1)c1ccc(OCc2cc3c(-c4ccccc4C)csc3cn2)cc1 [Cpd 51, (2S)-5-((4-(1-(1H-Tetrazol-5-yl)pent-3-yn-2-yl)phenoxy)methyl)-3-(2-methylphenyl)thieno[2,3-c]pyridine] | 3
CC#C[C@@H](Cc1nnn[nH]1)c1ccc(OCc2cc3c(-c4ccc(OC)cc4C)csc3cn2)cc1 [Cpd 52, (2S)-5-((4-(1-(1H-Tetrazol-5-yl)pent-3-yn-2-yl)phenoxy)methyl)-3-(4-methoxy-2-methylphenyl)thieno[2,3-c]pyridine] | 1
CC#C[C@@H](Cc1nnn[nH]1)c1ccc(OCc2ccc3scc(-c4ccccc4C)c3n2)cc1 [Cpd 53, (2S)-5-((4-(1-(1H-Tetrazol-5-yl)pent-3-yn-2-yl)phenoxy)methyl)-3-(2-methylphenyl)thieno[3,2-b]pyridine] | 170
CC#C[C@@H](Cc1nnn[nH]1)c1ccc(OCc2ccc3scc(-c4ccc(OC)cc4C)c3n2)cc1 [Cpd 54, (2S)-5-((4-(1-(1H-Tetrazol-5-yl)pent-3-yn-2-yl)phenoxy)methyl)-3-(4-methoxy-2-methylphenyl)thieno[3,2-b]pyridine] | 180
CC#C[C@@H](Cc1nnn[nH]1)c1ccc(OCc2ccc3scc(C4CCCC4)c3c2)cc1 [Cpd 56, (2S)-5-(2-(4-((3-Cyclopentylbenzo[b]thiophen-5-yl)methoxy)phenyl)pent-3-yn-1-yl)-1H-tetrazole] | 54
CC#C[C@@H](Cc1nnn[nH]1)c1ccc(OCc2ccc3scc(C(C)C)c3c2)cc1 [Cpd 58, (2S)-5-(2-(4-((3-Isopropylbenzo[b]thiophen-5-yl)methoxy)phenyl)pent-3-yn-1-yl)-1H-tetrazole] | 100
CC#C[C@@H](Cc1nnn[nH]1)c1ccc(OCc2ccc3scc(CCC)c3c2)cc1 [Cpd 59, (2S)-5-(2-(4-((3-Propylbenzo[b]thiophen-5-yl)methoxy)phenyl)pent-3-yn-1-yl)-1H-tetrazole] | 130
CC#C[C@@H](Cc1nnn[nH]1)c1ccc(OCc2ccc3sccc3c2)cc1 [Cpd 60, (2S)-5-(2-(4-(Benzo[b]thiophen-5-ylmethoxy)phenyl)pent-3-yn-1-yl)-1H-tetrazole] | 110
CC#C[C@@H](Cc1nnn[nH]1)c1ccc(OCc2cc(C)c3scc(CCCC)c3c2)cc1 [Cpd 64, (2S)-5-(2-(4-((3-Butyl-7-methylbenzo[b]thiophen-5-yl)methoxy)phenyl)pent-3-yn-1-yl)-1H-tetrazole] | 330
CC#C[C@@H](Cc1nnn[nH]1)c1ccc(OCc2cc(C)c3scc(C4CCCC4)c3c2)cc1 [Cpd 65, (2S)-5-(2-(4-((3-Cyclopentyl-7-methylbenzo[b]thiophen-5-yl)methoxy)phenyl)pent-3-yn-1-yl)-1H-tetrazole] | 440
CC#C[C@@H](Cc1nnn[nH]1)c1ccc(OCc2cc(C)c3scc(C4CCCCC4)c3c2)cc1 [Cpd 66, (2S)-5-(2-(4-((3-Cyclohexyl-7-methylbenzo[b]thiophen-5-yl)methoxy)phenyl)pent-3-yn-1-yl)-1H-tetrazole] | 1120

These compounds were tested on Male SD rats (assay: Oral Glucose Tolerance Test). Conditions: 10 mg/kg po 30-40 min prior to oGTT (glucose 2 g/kg po), blood glucose AUC t=0 to t=120 min.
Format: in vivo, rat
Method: Male SD rats (200-250 g) were housed 2 per cage in a temperature-controlled room with a 12-hour light/dark cycle. They were allowed ad libitum access to water and fed with normal rodent chow. The night before the oral glucose tolerance test (oGTT), the rats were transferred to clean cages and fasted overnight. On the morning of the oGTT, the rats were weighed and randomized into groups based on fasted blood glucose and body weight. Rats were dosed with vehicle (0.5% methocel) or compounds (10 mg/kg, po) thirty to forty min prior to the oGTT (glucose, 2 g/kg, po). Blood was collected from the tail vein at 0, 10, 30, 60 and 120 minutes after glucose challenge to measure blood glucose; plasma was used to determine insulin levels. The area under the curve for blood glucose excursion was calculated from t=0 to t=120 minutes. Percent lowering of glucose was calculated from the AUC data with respect to the vehicle-treated group.

SMILES | Percent Lowering of Glucose (AUC compound vs. AUC Vehicle) [%]
CC#C[C@@H](Cc1nnn[nH]1)c1ccc(OCc2ccc3scc(-c4ccccc4C)c3c2)cc1 [Cpd 1, (2S)-5-(2-(4-((3-(2-Methylphenyl)benzo[b]thiophen-5-yl)methoxy)phenyl)pent-3-yn-1-yl)-1H-tetrazole] | 81
CC#C[C@@H](Cc1nnn[nH]1)c1ccc(OCc2ccc3scc(-c4ccc(OCC5(C)CS(=O)(=O)C5)cc4C)c3c2)cc1 [Cpd 12, (2S)-3-((4-(5-((4-(1-(1H-Tetrazol-5-yl)pent-3-yn-2-yl)phenoxy)methyl)benzo[b]thiophen-3-yl)-3-methylphenoxy)methyl)-3-methylthietane 1,1-dioxide] | 101
CC#C[C@@H](Cc1nnn[nH]1)c1ccc(OCc2ccc3scc(-c4ccc(OCCCS(C)(=O)=O)cc4C)c3c2)cc1 [Cpd 16, (2S)-5-(2-(4-((3-(2-Methyl-4-(3-(methylsulfonyl)propoxy)phenyl)benzo[b]thiophen-5-yl)methoxy)phenyl)pent-3-yn-1-yl)-1H-tetrazole] | 105
CC#C[C@@H](Cc1nnn[nH]1)c1ccc(OCc2ccc3sc(F)c(-c4ccc(OCCOC)cc4C)c3c2)cc1 [Cpd 44, (2S)-5-(2-(4-((2-Fluoro-3-(4-(2-methoxyethoxy)-2-methylphenyl)benzo[b]thiophen-5-yl)methoxy)phenyl)pent-3-yn-1-yl)-1H-tetrazole] | 91
CC#C[C@@H](Cc1nnn[nH]1)c1ccc(OCc2ccc3sc(C(F)(F)F)c(-c4ccc(OCCOC)cc4C)c3c2)cc1 [Cpd 47, 5-((2S)-2-(4-((3-(4-(2-Methoxyethoxy)-2-methylphenyl)-2-(trifluoromethyl)benzo[b]thiophen-5-yl)methoxy)phenyl)pent-3-yn-1-yl)-1H-tetrazole] | 91
